Test results taken from patent US20120020876A1, “HEDGEHOG PATHWAY INHIBITORS” (priority 2009, published 2012).
Entries after “also recorded” stand apart in the source; their conditions may differ.

Columns and labels:
Type in all cases: in vivo, mouse
KPC pancreatic tumors = test: Monitoring of KPC pancreatic tumor volume by 3D high resolution ultrasonography; details: gemcitabine 100 mg/kg twice weekly, Compound A 40 ug/kg/day, or both
Description: For survival studies, mice were enrolled following the detection of 5-10 mm diameter tumor by ultrasound. Tumors were quantified by 3D ultrasound twice weekly until endpoint. High resolution ultrasound (US) imaging of normal and diseased mouse pancreas using the Vevo 770 System with a 35 MHz RMV scanhead (Visual Sonics, Inc.). 3D images were produced using the 3D motor arm to collect serial images at 0.25 mm intervals through the thickness of the tumor. Tumors were outlined on each 2D image and reconstructed to quantify the 3D volume using the integrated Vevo 770 software package.

[1] = system: pancreatic tumors in KPC mice; test: Survival study of tumor-bearing KPC mice; details: KPC mice enrolled with 5-10 mm tumors
Description: vehicles: 20 μL/g 0.85% NaCl+8 μL/g 5% HPBCD;
Compound A: 40 mg/kg Compound A+20 μL/g 0.85% NaCl;
For survival studies, mice were enrolled following the detection of 5-10 mm diameter tumor by ultrasound. Tumors were quantified by 3D ultrasound twice weekly until endpoint.

Gli1 = Gli1 expression in KPC tumors by quantitative real-time PCR; details: 40 mg/kg Compound A oral, treated for 4 days, vs control
Description: KPC mice harboring pancreatic tumors were treated with 40 mg/kg of Compound A by oral gavage, either singly, once daily for four days or at as part of a survival study. […] Six hours following the final dose, tissue samples were harvested, snap frozen in liquid nitrogen and stored at −80° C. Mice with abdominal ascites were excluded from analysis. Samples were analyzed by LC/MS, as described below.
RNA was isolated from tissues using the RNeasy kit (Qiagen). cDNA was synthesized from 1-2 ug of RNA using the AffinityScript QPCR cDNA Synthesis Kit (Stratagene). cDNA was analyzed by quantitative real-time PCR on a 7900HT Real-Time PCR system using relative quantification (ΔΔct) with the taqman gene expression assays (Applied Biosystems) (Table 7). Experiment was performed on 5 KPC tumors and 7 syngeneic tumors derived from K8484 or K8675 cells.

KPC tumor vasculature = test: Mean vascular density and vascular-tumor distance (CD31 immunohistochemistry) in KPC tumors
Description: Tissues were fixed in 10% formalin solution for 24 hours and transferred to 70% ethanol. Tissues were paraffin embedded, sectioned and rehydrated. For CD31 IHC, sections were unmasked in 10 mM EDTA, pH 8.0 in a pressure cooker. For all other antibodies, sections were unmasked in 10 mM citric acid in a pressure cooker. Endogenous peroxidases were quenched in 3% H2O2/PBS for 20 minutes. Remaining steps were carried out with Vectastain ABC kits appropriate to the species of primary antibody (Vector Labs, Burlingame, Calif.) with the following modification: blocking serum was supplemented with Protein Blocking Agent (Immunotech/BeckmanCoulter, Fullerton, Calif.) diluted 1:50. Antigens were developed with DAB Peroxidase Substrate (Vector Labs). […]
Tissue sections were probed with anti-CD31 antibodies and counterstained with hematoxylin. Mean vascular density (MVD) was determined as the number of CD31 positive blood vessels per 40× field, over three random fields per tumor. The distance separating intratumoral blood vessels and neoplastic cells was determined for twenty randomly chosen blood vessels per tumor. Each intratumoral blood vessels was photographed at 1000× magnification, and the distance to the four nearest tumor cells was measured and the results averaged.

KPC tumors = test: Proliferation of KPC tumors (phospho-histone H3 immunohistochemistry); details: 4 days or 8-12 days of treatment
Description: Tissues were fixed in 10% formalin solution for 24 hours and transferred to 70% ethanol. Tissues were paraffin embedded, sectioned and rehydrated. For CD31 IHC, sections were unmasked in 10 mM EDTA, pH 8.0 in a pressure cooker. For all other antibodies, sections were unmasked in 10 mM citric acid in a pressure cooker. Endogenous peroxidases were quenched in 3% H2O2/PBS for 20 minutes. Remaining steps were carried out with Vectastain ABC kits appropriate to the species of primary antibody (Vector Labs, Burlingame, Calif.) with the following modification: blocking serum was supplemented with Protein Blocking Agent (Immunotech/BeckmanCoulter, Fullerton, Calif.) diluted 1:50. Antigens were developed with DAB Peroxidase Substrate (Vector Labs). The following antibody dilutions were used: Phospho-Histone H3, 1:100 (#9701, Cell Signaling Technology); Cleaved Caspase 3, 1:100 (#9661, Cell Signaling Technology); CD31, 1:75 (SC-1506). Slides were counterstained with hematoxylin.

KPC tumor blood vessels = test: Vessel patency: lectin perfusion with CD31 staining in KPC tumors; details: KPC mice treated 10 days; vs untreated or gemcitabine tumors
Description: To assess the functional vasculature, biotin-conjugated Lycopersicon esculentum lectin (B1175-1 mg, Vector Laboratories) was resuspended in 425 μL PBS and mixed with 75 μL of 1 mg/mL Streptavidin-AlexaFluor 633 (S21375, Molecular Probes) (in sterile PBS). Prior to use, the lectin-avidin mixture was centrifuged 14,000 k on a microfuge for 10 minutes to remove any particulate. Fifteen minutes prior to euthanasia, 100 μl (0.4 mg total) of the conjugated lectin was administered as a slow intravenous infusion over 5 minutes, and the hemodynamics monitored closely to ensure that it was tolerated. For doxorubicin experiments, five minutes prior to euthanasia mice were also infused with a 20 mg/kg doxorubicin solution (D-1515.10 mg, in sterile saline, Sigma) over one minute.
While under terminal anesthesia, mice were perfused with 4% paraformaldehyde in PBS, pH 7.4. Perfused tissues were harvested, fixed overnight in 4% paraformaldehyde in PBS, pH 7.4 and transferred to 70% ethanol. Tissues were embedded in paraffin, sectioned, rehydrated, and counterstained with DAPI. The lectin labeling experiments were reproduced independently in a second laboratory (SRH, KI).
Mice were infused with 30 ml of 4% PFA pH 7.4 using a Harvard Apparatus PhD 2000 syringe pump at a rate of […]. […] Doxorubicin fluorescence was excited with a 488 nm laser, and emission was detected in a range from 520-620 nm. […]

With `CC1=C2C[C@H]3[C@@H](CC[C@@H]4C[C@H](NS(C)(=O)=O)CC[C@@]43C)[C@@H]2CC[C@@]2(C1)O[C@@H]1C[C@H](C)CN[C@H]1[C@H]2C.Cl` [Compound A] the “objective (ultrasonographic) response, responding mice/treated mice” value (KPC pancreatic tumors) was 2/10, the “effect on survival of KPC mice” value [1] was “Neither gemcitabine nor Compound A treatment had an effect on the survival” and the Gli1 expression (Gli1) was “significant decrease; also recorded: significantly lower”. For the same compound, the “mean vascular density (MVD)” value (KPC tumor vasculature; KPC tumors after 8-12 days of treatment) was “higher MVD; also recorded: significantly elevated; also recorded: increased MVD”, the “position of intratumoral blood vessels relative to tumor cells” value (KPC tumor vasculature; KPC tumors, vs control and gemcitabine-treated specimens) was “positioned in close proximity to tumor cells” and the “proliferation of KPC tumors” value (KPC tumors) was “little appreciable effect; also recorded: unchanged”. The “vessel patency (percent of CD31 positive vessels perfused with lectin)” value (KPC tumor blood vessels) was “increased vessel patency”.
